Laboratory results published in patent US9018218B2 (priority 2010, dated 2015).
Where two headings read alike, the source gives them in different places.

Columns and labels:
wheat rust = conditions: in vivo
cucumber downy mildew = test: fungicidal activity in vivo, cucumber downy mildew on cucumber seedling leaves; conditions: spray, investigated after 5 days
Experimental: (§1) The procedure of determination of fungicidal activity in vivo is as follow:
The compounds of the present invention were diluted to given concentrations and sprayed on the leaves of cucumber seedling at the same stage, on which growing point were cut off and two euphyllas were kept meanwhile, water were set as the blank control, three replicates were set for each treatment. Cucumber downy mildew spore suspension were inoculated on the second day after treatment, then, the plants were placed in a chamber (temperature: day 25° C., and night 20° C., relative humidity 95 to 100%), and then placed in greenhouse (25±2° C.) 24 hours later and routine management was conducted. The test results were investigated after 5 days, disease grading refers to the national standard of the People's Republic of China [The test criteria of pesticide field trial], the control effect was calculated by disease index.

wheat powdery mildew = test: fungicidal activity in vivo, wheat powdery mildew on wheat seedling leaves; conditions: spray, investigated after 7 days
Experimental: as §1
The compounds of the present invention were diluted to given concentrations and sprayed on the leaves of wheat seedling at the same two-leaf stage, meanwhile, water were set as the blank control, three replicates were set for each treatment. Wheat powdery mildew spore suspension were inoculated on the second day after treatment, and then placed in greenhouse (25±2° C.) and routine management was conducted. The test results were investigated after 7 days, disease grading refers to the national standard of the People's Republic of China [The test criteria of pesticide field trial], the control effect was calculated by disease index.

rice blast = test: microbe, parasite or virus in culture; format: cell-based; conditions: for rice blast inhibition rate %: in vitro spore germination; for inhibition at 2.8 µg/mL / inhibition at 8.3 µg/mL / inhibition at 25 µg/mL: Pyricularia oryzae, read-out: rice blast inhibition rate %
[1] = 100 mg/L, spray, investigated after 7 days
[2] = 400 mg/L, spray, investigated after 7 days

Row | SMILES | wheat rust control % (wheat rust; [1]) | wheat rust control % (wheat rust; [2]) | cucumber downy mildew control % (cucumber downy mildew; 100 mg/L) | cucumber downy mildew control % (cucumber downy mildew; 400 mg/L) | wheat powdery mildew control % (wheat powdery mildew; 50 mg/L) | wheat powdery mildew control % (wheat powdery mildew; 100 mg/L) | wheat powdery mildew control % (wheat powdery mildew; 400 mg/L) | rice blast inhibition rate % (rice blast; 2.8 mg/L) | rice blast inhibition rate % (rice blast; 8.3 mg/L) | rice blast inhibition rate % (rice blast; 25 mg/L) | wheat rust control % (wheat rust) | inhibition at 2.8 µg/mL (rice blast) | inhibition at 8.3 µg/mL (rice blast) | inhibition at 25 µg/mL (rice blast) | melting point | wheat rust control % (wheat rust; 50 mg/L, spray, investigated after 7 days) | cucumber downy mildew control % (cucumber downy mildew; 50 mg/L)
1 | CCCCc1c(C)nc(Nc2ccccc2)nc1OC(=O)OC(C)C [Compound 46] | 0% | 100% | 10% | 95% | 98% | 100% | 100% | 80% | 100% | 100% | – | – | – | – | – | – | –
2 | CC(C)OC(=O)Oc1nc(Nc2ccc(F)c(F)c2F)nc2c1CCCC2 [Compound 443] | – | – | – | 90% | – | – | 0% | – | – | – | 0% | 50% | 100% | 100% | 124 to 126 °C | – | –
3 | CC(C)OC(=O)Oc1nc(Nc2ccccc2)nc2c1CCCC2 [Compound 427] | – | 98% | – | 0% | – | – | 0% | – | 80% | 100% | – | – | – | – | – | – | –
4 | CC(C)OC(=O)Oc1nc(Nc2ccccc2)nc2c1CCC2 [Compound 393] | – | – | – | 0% | – | – | 0% | – | – | – | 70% | 0% | 80% | 100% | 124 to 126 °C | – | –
5 | CCCCc1c(C)nc(Nc2ccccc2)nc1OC(=O)OC(C)c1ccccc1 (stereo not drawn) [Compound 173] | – | 0% | – | 50% | – | 80% | 100% | – | – | 50% | – | – | – | – | – | – | –
6 | CCCCc1c(C)nc(Nc2ccc(OC(F)(F)F)cc2)nc1OC(=O)OC [Compound 13] | – | 0% | – | 30% | – | – | 95% | – | – | – | – | – | – | – | – | – | –
7 | COC(=O)Oc1cc(C2CC2)nc(Nc2ccccc2)n1 [Compound K2, reference compound] | – | – | – | 0% | – | – | 0% | – | – | – | 0% | – | – | 80% | – | – | –
8 | CCCCOC(=O)Oc1nc(Nc2ccccc2)nc(C)c1CCCC [Compound 101] | 0% | 98% | – | 70% | 70% | 95% | 100% | – | – | 50% | – | – | – | – | – | – | –
9 | Cc1cc(OC(=O)OC(C)C)nc(Nc2ccccc2)n1 [Compound 270] | – | 60% | – | 0% | – | – | 0% | – | 0% | 100% | – | – | – | – | – | – | –
10 | CCCCc1c(C)nc(Nc2ccccc2)nc1OC(=O)OCC [Compound 75] | 60% | 98% | 30% | 95% | 50% | 98% | 95% | – | – | 50% | – | – | – | – | – | 30% | –
11 | CCCCc1c(C)nc(Nc2ccc(OC(F)(F)F)cc2)nc1OC(=O)OC(C)C [Compound 53] | – | 0% | – | 95% | – | – | 50% | – | – | 50% | – | – | – | – | – | – | –
12 | CCCCc1c(C)nc(Nc2ccccc2)nc1OC(=O)OC [Compound 1] | – | – | 20% | 95% | 98% | 100% | 100% | – | – | – | – | – | – | – | – | – | 0%
13 | CCCCc1c(C)nc(N(C)C)nc1OC(=O)OCC [Compound K1, reference compound] | – | – | – | 0% | – | 0% | 100% | – | – | – | 0% | 0% | 80% | 100% | – | – | –
14 | CCCCc1c(C)nc(Nc2ccccc2)nc1OC(=O)OCc1ccccc1 [Compound 156] | – | – | – | 30% | – | 80% | 100% | – | – | – | 0% | – | – | 80% | – | – | –
15 | Cc1nc(Nc2ccccc2)nc(OC(=O)OC(C)C)c1C [Compound 253] | – | 95% | – | 20% | – | – | 0% | 50% | 80% | 100% | – | – | – | – | – | – | –
